These are literature values, as cited in patent US20120141548A1, “NOVEL FORMULATION OF MELOXICAM” (FUNDACIONUNIVERSIDAD DEL NORTE, priority 2009, published 2012).

The structures appear in SMILES notation.

The conditions of series [1]: conventional meloxicam.

As usually defined, the Tmax is the time at which the peak concentration occurs. `Cc1cnc(NC(=O)C2=C(O)c3ccccc3S(=O)(=O)N2C)s1` [Meloxicam, meloxicam]: the water solubility entry was “poorly water soluble”. Besides, in series [1], the Tmax was 4 to 5 h.
